# Assay results as given in patent US8865734B2 (priority 2010, dated 2014).
# Test system: multi-drug resistant (MDR) clinical isolates
# Experiment: microbe, parasite or virus in culture
# Format: cell-based, M. tuberculosis
# Details: for level of activity relative to MFX: MDR isolates and H37Rv; for MIC / MIC80: Mycobacterium tuberculosis
SMILES,level of activity relative to MFX,MIC [µM],MIC80 (MDR isolate #13) [µM],MIC80 (MDR isolate #33) [µM],MIC80 (MDR isolate #48) [µM],MIC80 (MDR isolate #61) [µM],MIC80 (MDR isolate #80) [µM],MIC80 (MDR isolate #125) [µM],MIC80 (MDR isolate #137) [µM],MIC80 (MDR isolate #143) [µM],MIC80 (MDR isolate #146) [µM],MIC80 (MDR isolate #171) [µM],resistance of the MDR strains (all MDR tested strains)
"CCc1nc2ccccn2c1C(=O)NCc1ccc(Oc2ccccc2)cc1 [Compound 54, 2-Ethyl-N-(4-phenoxybenzyl)imidazo[1,2-a]pyridine-3-carboxamide]",comparable to or better than MFX,≤ 0.625,0.156,0.156,0.156,0.156,0.156,0.312,0.625,0.312,0.312,0.312,
"CCc1nc2ccccn2c1C(=O)NCc1ccc(-c2ccccc2)cc1 [Compound 47, N-(Biphenyl-4-ylmethyl)-2-ethylimidazo[1,2-a]pyridine-3-carboxamide]",comparable to or better than MFX,≤ 1.25,0.312,0.312,0.312,0.312,0.312,0.625,1.25,1.25,0.156,1.25,
"NNC(=O)c1ccncc1 [INH, Isoniazid, reference compound]",,,5,10,10,20,5,10,20,10,20,5,resistance was confirmed
